System: Iba-1+ cells
Test: Iba-1 positive cell density in dorsal hippocampus after neonatal HI
Assay type: in vivo, mouse
Conditions: P55, 3 days treatment after HI
Experimental: On P51 (long-term study) or P55 (short-term study), mice were deeply anesthetized with thiopental [Pentothal Sodium (0.01 ml/g body weight), Hospira, Ill., USA)] and transcardially perfused with 0.9% saline, followed by 4% paraformaldehyde (PFA) in 0.1 M PBS. Brains were removed and post-fixed in 4% PFA at 4° C. for 24 h followed by 70% ethanol for 24 h. Tissue was processed using an automatic tissue processor (SAKURA Tissue Tek VIP 3000, Tournai, Belgium) and embedded in paraffin. Brains were cut at room temperature into 8-μm serial coronal sections using a sliding microtome (Microm HM 450, Thermo Scientific, Massachusetts, USA), attached to silane coated slides and dried at RT. […]
NeuN positive cells, GFAP positive relative area, as well as GAP-43, SYN, and VGLUT1 positive puncta were counted by using MetaMorph software (ver. 7.8.6, Molecular Devices, CA, USA) on confocal images obtained with a 20× (NeuN and GFAP) or 63× (GAP-43, SYN, and VGLUT1) objective (Carl Zeiss LSM 700 Laser Scanning Microscope, Jena, Germany). Iba-1 positive cell somata were counted on bright field images obtained with a 20× objective (Nikon Eclipse 80i). […]

C3a: Purified human C3a peptide (Complement Technologies), C3a receptor agonist, amino acid sequence SEQ ID NO: 1
density of Iba-1+ cells, ipsilateral vs contralateral: did not differ between the hemispheres
